Source: the kinase profiling compilation of Christmann-Franck et al. (2016)

Experiments:
Assay in all cases: radiometric filter-binding kinase assay
[1] = test system: AKT2 (human), P31751 [S474D]
YES1 (human) = YES1 (human) (UniProt P07947)
CLK2 (human) = CLK2 (human) (UniProt P49760)
EPHB3 (human) = EPHB3 (human) (UniProt P54753)
PKN2 (human) = PKN2 (human) (UniProt Q16513)
IGF1R (human) = IGF1R (human) (UniProt P08069)
GSK3B (human) = GSK3B (human) (UniProt P49841)
SYK (human) = SYK (human) (UniProt P43405)
RPS6KA5 KD1 KD2 (human) = RPS6KA5 KD1 KD2 (human) (UniProt O75582)
PLK1 (human) = PLK1 (human) (UniProt P53350)
BRSK2 (human) = BRSK2 (human) (UniProt Q8IWQ3)
CSK (human) = CSK (human) (UniProt P41240)
ROCK2 (rat) = settings: accession and sequence are those of the human protein
HIPK1 (human) = HIPK1 (human) (UniProt Q86Z02)
EPHB1 (human) = EPHB1 (human) (UniProt P54762)
PRKAA1 or PRKAA2 (rat) = settings: accession and sequence are those of the human protein
MAP3K5 (human) = MAP3K5 (human) (UniProt Q99683)
HIPK3 (human) = HIPK3 (human) (UniProt Q9H422)
MAPK1 (human) = MAPK1 (human) (UniProt P28482)
MAPK13 (human) = MAPK13 (human) (UniProt O15264)
MAPK11 (human) = MAPK11 (human) (UniProt Q15759)
EPHB4 (human) = EPHB4 (human) (UniProt P54760)
MAP3K9 (human) = MAP3K9 (human) (UniProt P80192)
HIPK2 (human) = HIPK2 (human) (UniProt Q9H2X6)
SRC (human) = SRC (human) (UniProt P12931)
MAP3K1 (human) = MAP3K1 (human) (UniProt Q13233)
PAK6 (human) = PAK6 (human) (UniProt Q9NQU5)
PRKCZ (human) = PRKCZ (human) (UniProt Q05513)
CAMKK2 (human) = CAMKK2 (human) (UniProt Q96RR4)
DAPK1 (human) = DAPK1 (human) (UniProt P53355)
PAK7 (human) = PAK7 (human) (UniProt Q9P286)
MARK4 (human) = MARK4 (human) (UniProt Q96L34)
LCK (mouse) = settings: accession and sequence are those of the human protein
MAP3K7 TAB1 (human) = MAP3K7 TAB1 (human) (UniProt Q15750+O43318)
INSR (human) = INSR (human) (UniProt P06213)
EPHA4 (human) = EPHA4 (human) (UniProt P54764); settings: compound 1.0 µM

Chain of GSK3B (human) (P49841 whole entry, looked up): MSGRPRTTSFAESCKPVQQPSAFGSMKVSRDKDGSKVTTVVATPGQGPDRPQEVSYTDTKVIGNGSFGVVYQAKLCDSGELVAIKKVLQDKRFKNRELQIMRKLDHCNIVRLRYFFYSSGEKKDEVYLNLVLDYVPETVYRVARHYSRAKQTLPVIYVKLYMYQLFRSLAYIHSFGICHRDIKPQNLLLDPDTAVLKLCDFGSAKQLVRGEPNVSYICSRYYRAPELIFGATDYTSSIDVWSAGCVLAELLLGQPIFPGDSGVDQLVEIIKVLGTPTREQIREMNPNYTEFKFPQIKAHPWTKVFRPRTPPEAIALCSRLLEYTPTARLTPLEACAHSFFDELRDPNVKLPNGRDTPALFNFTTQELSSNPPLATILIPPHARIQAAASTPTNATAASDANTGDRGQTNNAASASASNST
Chain of EPHB3 (human) (P54753 whole entry, looked up): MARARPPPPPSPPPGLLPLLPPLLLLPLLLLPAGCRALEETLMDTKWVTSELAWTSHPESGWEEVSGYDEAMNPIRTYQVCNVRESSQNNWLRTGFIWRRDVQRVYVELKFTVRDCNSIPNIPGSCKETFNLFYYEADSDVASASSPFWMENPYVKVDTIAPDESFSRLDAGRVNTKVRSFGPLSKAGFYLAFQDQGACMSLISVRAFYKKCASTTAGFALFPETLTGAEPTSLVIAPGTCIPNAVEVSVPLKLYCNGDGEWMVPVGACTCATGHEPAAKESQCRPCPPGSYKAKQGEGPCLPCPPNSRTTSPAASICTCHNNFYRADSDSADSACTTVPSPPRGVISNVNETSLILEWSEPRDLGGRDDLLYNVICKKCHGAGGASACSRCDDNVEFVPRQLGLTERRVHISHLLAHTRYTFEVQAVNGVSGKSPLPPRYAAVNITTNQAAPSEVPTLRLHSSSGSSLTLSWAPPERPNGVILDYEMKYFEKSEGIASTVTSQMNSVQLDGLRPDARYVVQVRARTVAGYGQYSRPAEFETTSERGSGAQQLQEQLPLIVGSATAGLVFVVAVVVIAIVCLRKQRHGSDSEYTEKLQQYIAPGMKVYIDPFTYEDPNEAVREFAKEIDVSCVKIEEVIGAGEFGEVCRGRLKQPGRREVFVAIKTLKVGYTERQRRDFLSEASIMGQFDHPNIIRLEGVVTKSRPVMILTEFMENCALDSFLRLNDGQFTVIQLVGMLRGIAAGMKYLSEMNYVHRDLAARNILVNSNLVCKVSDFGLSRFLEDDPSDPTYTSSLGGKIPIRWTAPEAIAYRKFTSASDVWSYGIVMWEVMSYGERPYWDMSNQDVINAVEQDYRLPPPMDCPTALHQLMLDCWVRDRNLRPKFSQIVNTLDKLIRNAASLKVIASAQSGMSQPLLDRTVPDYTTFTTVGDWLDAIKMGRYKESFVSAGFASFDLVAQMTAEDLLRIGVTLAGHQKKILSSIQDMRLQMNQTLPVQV
Chain of MAP3K9 (human) (P80192 whole entry, looked up): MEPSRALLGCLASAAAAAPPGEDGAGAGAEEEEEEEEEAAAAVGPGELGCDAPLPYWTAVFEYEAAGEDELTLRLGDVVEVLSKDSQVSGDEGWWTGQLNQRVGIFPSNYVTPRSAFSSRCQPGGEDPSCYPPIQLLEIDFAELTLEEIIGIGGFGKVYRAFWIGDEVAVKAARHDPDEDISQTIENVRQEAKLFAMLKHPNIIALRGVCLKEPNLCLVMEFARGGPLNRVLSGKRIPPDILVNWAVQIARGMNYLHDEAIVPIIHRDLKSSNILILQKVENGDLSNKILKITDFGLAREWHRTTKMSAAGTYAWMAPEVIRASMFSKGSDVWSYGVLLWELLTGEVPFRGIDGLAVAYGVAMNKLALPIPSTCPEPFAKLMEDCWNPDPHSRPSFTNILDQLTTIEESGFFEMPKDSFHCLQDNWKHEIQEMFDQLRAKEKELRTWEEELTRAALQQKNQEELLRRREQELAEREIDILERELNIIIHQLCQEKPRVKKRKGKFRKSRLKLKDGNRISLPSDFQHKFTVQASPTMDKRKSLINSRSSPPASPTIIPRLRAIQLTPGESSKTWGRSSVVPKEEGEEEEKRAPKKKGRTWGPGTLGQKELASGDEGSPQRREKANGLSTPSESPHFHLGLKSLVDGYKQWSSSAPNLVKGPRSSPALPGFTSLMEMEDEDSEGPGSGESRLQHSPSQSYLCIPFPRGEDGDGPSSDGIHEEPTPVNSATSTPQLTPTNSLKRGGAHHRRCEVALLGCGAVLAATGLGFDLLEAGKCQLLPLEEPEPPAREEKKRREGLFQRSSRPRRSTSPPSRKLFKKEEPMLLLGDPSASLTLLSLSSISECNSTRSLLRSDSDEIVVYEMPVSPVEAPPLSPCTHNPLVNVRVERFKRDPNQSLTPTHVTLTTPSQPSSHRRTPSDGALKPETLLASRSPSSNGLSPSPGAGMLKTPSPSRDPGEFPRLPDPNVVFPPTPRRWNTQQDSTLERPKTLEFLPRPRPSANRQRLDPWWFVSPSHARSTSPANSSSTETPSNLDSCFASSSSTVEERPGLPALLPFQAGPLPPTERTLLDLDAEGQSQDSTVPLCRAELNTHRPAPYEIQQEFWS
Chain of AKT2 (human), P31751 [S474D] (P31751 whole entry S474D, looked up): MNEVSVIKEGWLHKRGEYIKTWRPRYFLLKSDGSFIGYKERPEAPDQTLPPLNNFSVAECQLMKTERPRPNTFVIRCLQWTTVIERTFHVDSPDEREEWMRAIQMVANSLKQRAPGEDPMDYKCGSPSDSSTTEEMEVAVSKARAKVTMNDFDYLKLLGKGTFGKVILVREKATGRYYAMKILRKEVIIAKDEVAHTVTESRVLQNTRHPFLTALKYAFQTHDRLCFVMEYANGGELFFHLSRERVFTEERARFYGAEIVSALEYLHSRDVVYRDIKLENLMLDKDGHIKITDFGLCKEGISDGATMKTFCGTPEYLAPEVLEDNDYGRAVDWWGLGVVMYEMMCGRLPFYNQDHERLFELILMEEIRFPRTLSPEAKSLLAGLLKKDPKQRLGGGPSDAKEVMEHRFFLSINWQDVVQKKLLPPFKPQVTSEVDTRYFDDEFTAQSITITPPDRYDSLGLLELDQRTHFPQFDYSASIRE
Chain of BRSK2 (human) (Q8IWQ3 whole entry, looked up): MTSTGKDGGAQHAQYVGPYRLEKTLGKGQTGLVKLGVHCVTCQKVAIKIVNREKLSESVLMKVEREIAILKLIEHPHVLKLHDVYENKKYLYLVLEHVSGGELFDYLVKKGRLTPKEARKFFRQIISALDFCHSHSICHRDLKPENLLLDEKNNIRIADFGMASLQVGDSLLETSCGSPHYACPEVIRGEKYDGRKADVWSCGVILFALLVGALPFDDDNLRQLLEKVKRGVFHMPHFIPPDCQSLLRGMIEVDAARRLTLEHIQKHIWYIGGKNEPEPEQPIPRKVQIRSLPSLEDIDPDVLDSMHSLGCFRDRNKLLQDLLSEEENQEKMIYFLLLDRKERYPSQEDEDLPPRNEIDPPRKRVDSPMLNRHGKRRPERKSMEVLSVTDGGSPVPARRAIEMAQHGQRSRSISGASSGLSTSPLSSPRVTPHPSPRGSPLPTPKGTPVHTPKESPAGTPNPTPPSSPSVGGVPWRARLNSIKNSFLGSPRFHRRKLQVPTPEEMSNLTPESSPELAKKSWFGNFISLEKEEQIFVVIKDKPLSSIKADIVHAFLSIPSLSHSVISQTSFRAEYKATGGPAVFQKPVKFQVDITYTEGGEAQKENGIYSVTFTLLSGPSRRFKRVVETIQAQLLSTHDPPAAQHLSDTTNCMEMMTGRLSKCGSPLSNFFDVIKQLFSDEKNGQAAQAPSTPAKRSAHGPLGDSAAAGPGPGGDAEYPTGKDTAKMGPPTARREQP
Chain of HIPK2 (human) (Q9H2X6 whole entry, looked up): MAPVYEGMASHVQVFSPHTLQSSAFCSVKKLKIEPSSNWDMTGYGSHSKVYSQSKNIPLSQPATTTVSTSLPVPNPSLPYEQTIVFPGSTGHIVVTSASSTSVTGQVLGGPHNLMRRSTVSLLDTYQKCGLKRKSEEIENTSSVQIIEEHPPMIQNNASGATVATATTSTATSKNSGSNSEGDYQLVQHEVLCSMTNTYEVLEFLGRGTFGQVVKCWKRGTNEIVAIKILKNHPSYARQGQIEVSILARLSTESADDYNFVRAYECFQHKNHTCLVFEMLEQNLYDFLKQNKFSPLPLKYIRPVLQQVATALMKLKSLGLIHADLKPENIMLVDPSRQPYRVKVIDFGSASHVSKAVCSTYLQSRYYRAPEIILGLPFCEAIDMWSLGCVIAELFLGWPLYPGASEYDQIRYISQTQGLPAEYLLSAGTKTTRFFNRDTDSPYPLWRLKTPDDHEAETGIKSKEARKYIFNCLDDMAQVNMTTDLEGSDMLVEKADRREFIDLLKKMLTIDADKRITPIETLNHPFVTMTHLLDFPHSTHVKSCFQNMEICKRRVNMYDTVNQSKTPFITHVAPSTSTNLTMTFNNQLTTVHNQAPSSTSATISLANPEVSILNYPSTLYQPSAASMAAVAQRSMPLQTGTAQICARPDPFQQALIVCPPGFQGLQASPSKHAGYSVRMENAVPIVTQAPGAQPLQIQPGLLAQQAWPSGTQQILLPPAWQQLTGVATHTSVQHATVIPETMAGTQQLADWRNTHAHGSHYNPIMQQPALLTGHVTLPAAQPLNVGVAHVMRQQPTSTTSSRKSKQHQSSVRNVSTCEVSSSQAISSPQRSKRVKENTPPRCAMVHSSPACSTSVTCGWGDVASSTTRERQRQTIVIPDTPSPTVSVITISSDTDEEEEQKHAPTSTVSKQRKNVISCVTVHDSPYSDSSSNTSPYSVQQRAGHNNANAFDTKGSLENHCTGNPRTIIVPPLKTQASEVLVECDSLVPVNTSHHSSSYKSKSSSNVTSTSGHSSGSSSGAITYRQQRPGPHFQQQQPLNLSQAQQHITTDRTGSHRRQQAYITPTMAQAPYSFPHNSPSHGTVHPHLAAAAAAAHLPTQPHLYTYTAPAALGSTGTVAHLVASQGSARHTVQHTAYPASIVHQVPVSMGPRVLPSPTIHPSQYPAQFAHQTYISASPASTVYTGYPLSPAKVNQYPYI

residual activity ([1]; compound 0.1 µM): 101%
residual activity ([1]; compound 1.0 µM): 59%
residual activity ([1]; compound 10.0 µM): 38%
residual activity (YES1 (human); compound 0.1 µM): 108%
residual activity (YES1 (human); compound 1.0 µM): 98%
residual activity (YES1 (human); compound 10.0 µM): 86%
residual activity (CLK2 (human); compound 0.1 µM): 107%
residual activity (CLK2 (human); compound 1.0 µM): 71%
residual activity (CLK2 (human); compound 10.0 µM): 22%
residual activity (EPHB3 (human); compound 0.1 µM): 81%
residual activity (EPHB3 (human); compound 1.0 µM): 99%
residual activity (EPHB3 (human); compound 10.0 µM): 83%
residual activity (PKN2 (human); compound 0.1 µM): 31%
residual activity (PKN2 (human); compound 1.0 µM): 12%
residual activity (PKN2 (human); compound 10.0 µM): 7%
residual activity (IGF1R (human); compound 0.1 µM): 96%
residual activity (IGF1R (human); compound 1.0 µM): 107%
residual activity (IGF1R (human); compound 10.0 µM): 105%
residual activity (GSK3B (human); compound 0.1 µM): 87%
residual activity (GSK3B (human); compound 1.0 µM): 66%
residual activity (GSK3B (human); compound 10.0 µM): 25%
residual activity (SYK (human); compound 0.1 µM): 106%
residual activity (SYK (human); compound 1.0 µM): 101%
residual activity (SYK (human); compound 10.0 µM): 79%
residual activity (RPS6KA5 KD1 KD2 (human); compound 0.1 µM): 22%
residual activity (RPS6KA5 KD1 KD2 (human); compound 1.0 µM): 5%
residual activity (RPS6KA5 KD1 KD2 (human); compound 10.0 µM): 1%
residual activity (PLK1 (human); compound 0.1 µM): 83%
residual activity (PLK1 (human); compound 1.0 µM): 60%
residual activity (PLK1 (human); compound 10.0 µM): 41%
residual activity (BRSK2 (human); compound 0.1 µM): 96%
residual activity (BRSK2 (human); compound 1.0 µM): 89%
residual activity (BRSK2 (human); compound 10.0 µM): 41%
residual activity (CSK (human); compound 0.1 µM): 89%
residual activity (CSK (human); compound 1.0 µM): 95%
residual activity (CSK (human); compound 10.0 µM): 98%
residual activity (ROCK2 (rat); compound 0.1 µM): 31%
residual activity (ROCK2 (rat); compound 1.0 µM): 23%
residual activity (ROCK2 (rat); compound 10.0 µM): 17%
residual activity (HIPK1 (human); compound 0.1 µM): 107%
residual activity (HIPK1 (human); compound 1.0 µM): 107%
residual activity (HIPK1 (human); compound 10.0 µM): 84%
residual activity (EPHB1 (human); compound 0.1 µM): 92%
residual activity (EPHB1 (human); compound 1.0 µM): 99%
residual activity (EPHB1 (human); compound 10.0 µM): 82%
residual activity (PRKAA1 or PRKAA2 (rat); compound 0.1 µM): 95%
residual activity (PRKAA1 or PRKAA2 (rat); compound 1.0 µM): 82%
residual activity (PRKAA1 or PRKAA2 (rat); compound 10.0 µM): 29%
residual activity (MAP3K5 (human); compound 0.1 µM): 100%
residual activity (MAP3K5 (human); compound 1.0 µM): 97%
residual activity (MAP3K5 (human); compound 10.0 µM): 97%
residual activity (HIPK3 (human); compound 0.1 µM): 99%
residual activity (HIPK3 (human); compound 1.0 µM): 95%
residual activity (HIPK3 (human); compound 10.0 µM): 84%
residual activity (MAPK1 (human); compound 0.1 µM): 113%
residual activity (MAPK1 (human); compound 1.0 µM): 117%
residual activity (MAPK1 (human); compound 10.0 µM): 115%
residual activity (MAPK13 (human); compound 0.1 µM): 100%
residual activity (MAPK13 (human); compound 1.0 µM): 99%
residual activity (MAPK13 (human); compound 10.0 µM): 88%
residual activity (MAPK11 (human); compound 0.1 µM): 102%
residual activity (MAPK11 (human); compound 1.0 µM): 96%
residual activity (MAPK11 (human); compound 10.0 µM): 89%
residual activity (EPHB4 (human); compound 0.1 µM): 105%
residual activity (EPHB4 (human); compound 1.0 µM): 105%
residual activity (EPHB4 (human); compound 10.0 µM): 94%
residual activity (MAP3K9 (human); compound 0.1 µM): 105%
residual activity (MAP3K9 (human); compound 1.0 µM): 104%
residual activity (MAP3K9 (human); compound 10.0 µM): 99%
residual activity (HIPK2 (human); compound 0.1 µM): 112%
residual activity (HIPK2 (human); compound 1.0 µM): 82%
residual activity (HIPK2 (human); compound 10.0 µM): 43%
residual activity (SRC (human); compound 0.1 µM): 110%
residual activity (SRC (human); compound 1.0 µM): 120%
residual activity (SRC (human); compound 10.0 µM): 102%
residual activity (MAP3K1 (human); compound 0.1 µM): 94%
residual activity (MAP3K1 (human); compound 1.0 µM): 93%
residual activity (MAP3K1 (human); compound 10.0 µM): 112%
residual activity (PAK6 (human); compound 0.1 µM): 103%
residual activity (PAK6 (human); compound 1.0 µM): 94%
residual activity (PAK6 (human); compound 10.0 µM): 93%
residual activity (PRKCZ (human); compound 0.1 µM): 94%
residual activity (PRKCZ (human); compound 1.0 µM): 71%
residual activity (PRKCZ (human); compound 10.0 µM): 25%
residual activity (CAMKK2 (human); compound 1.0 µM): 128%
residual activity (CAMKK2 (human); compound 10.0 µM): 105%
residual activity (DAPK1 (human); compound 0.1 µM): 111%
residual activity (DAPK1 (human); compound 1.0 µM): 84%
residual activity (DAPK1 (human); compound 10.0 µM): 35%
residual activity (PAK7 (human); compound 0.1 µM): 93%
residual activity (PAK7 (human); compound 1.0 µM): 100%
residual activity (PAK7 (human); compound 10.0 µM): 98%
residual activity (MARK4 (human); compound 0.1 µM): 91%
residual activity (MARK4 (human); compound 1.0 µM): 103%
residual activity (MARK4 (human); compound 10.0 µM): 81%
residual activity (LCK (mouse); compound 0.1 µM): 102%
residual activity (LCK (mouse); compound 1.0 µM): 99%
residual activity (LCK (mouse); compound 10.0 µM): 94%
residual activity (MAP3K7 TAB1 (human); compound 0.1 µM): 95%
residual activity (MAP3K7 TAB1 (human); compound 1.0 µM): 94%
residual activity (MAP3K7 TAB1 (human); compound 10.0 µM): 82%
residual activity (INSR (human); compound 0.1 µM): 99%
residual activity (INSR (human); compound 1.0 µM): 99%
residual activity (INSR (human); compound 10.0 µM): 99%
residual activity (EPHA4 (human)): 109%
SMILES: CCn1c(-c2nonc2N)nc2cncc(CNC3CCNCC3)c21
